These results are taken from US5455228A, “Peptidase resistant thrombin receptor peptide ligand” (The Research Foundation of State University of New York, priority 1993, dated 1995).

Numbered stars: 1 amine (or outer) side, 2 acyl side, 3 side chain; on linkers, the order of the positions; unused ones are H or OH. Square brackets hold non-standard residues; d marks the D form. Ends that are not written are not given here. Peptide text beside a SMILES is read from it. ξ: configuration not given here. ξIsoserine = O=C(C(O)CN[*:1])[*:2]

The target of data set [1] is T1, plasma aminopeptidase M (Homo sapiens, UniProt P15144).
T1 construct: from tissue; host or cells: human citrated platelet-poor plasma
T1 sequence (P15144 whole entry): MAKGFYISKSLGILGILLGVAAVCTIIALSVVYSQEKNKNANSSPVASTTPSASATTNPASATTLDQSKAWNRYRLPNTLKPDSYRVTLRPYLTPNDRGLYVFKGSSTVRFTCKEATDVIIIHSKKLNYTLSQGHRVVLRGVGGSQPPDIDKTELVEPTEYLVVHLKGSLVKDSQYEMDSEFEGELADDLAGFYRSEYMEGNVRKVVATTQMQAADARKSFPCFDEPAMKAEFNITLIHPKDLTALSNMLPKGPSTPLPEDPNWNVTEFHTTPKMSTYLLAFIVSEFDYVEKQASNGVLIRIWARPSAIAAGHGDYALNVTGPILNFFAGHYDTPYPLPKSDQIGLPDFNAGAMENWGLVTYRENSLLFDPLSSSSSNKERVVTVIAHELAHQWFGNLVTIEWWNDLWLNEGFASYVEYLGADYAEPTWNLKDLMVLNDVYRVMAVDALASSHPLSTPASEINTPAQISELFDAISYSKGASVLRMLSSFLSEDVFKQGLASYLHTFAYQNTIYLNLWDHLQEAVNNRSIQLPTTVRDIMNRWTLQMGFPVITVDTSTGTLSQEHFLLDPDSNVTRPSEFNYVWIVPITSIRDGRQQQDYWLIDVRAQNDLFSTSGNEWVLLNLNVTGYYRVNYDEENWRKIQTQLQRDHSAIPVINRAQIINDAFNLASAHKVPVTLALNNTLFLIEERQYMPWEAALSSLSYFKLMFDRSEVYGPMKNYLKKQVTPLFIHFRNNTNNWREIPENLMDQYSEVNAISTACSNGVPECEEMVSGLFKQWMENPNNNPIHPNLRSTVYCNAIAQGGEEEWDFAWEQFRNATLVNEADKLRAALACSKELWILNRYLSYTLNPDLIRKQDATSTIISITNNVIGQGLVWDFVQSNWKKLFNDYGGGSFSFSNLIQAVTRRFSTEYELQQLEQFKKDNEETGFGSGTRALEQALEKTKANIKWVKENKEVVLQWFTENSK
The experiment in a line: Loss of peptide platelet aggregating activity during plasma incubation. The conditions noted are these: for aggregating activity after plasma incubation: 125 μM peptide; for platelet aggregating activity when incubated in plasma: 2 mM peptide mixed 1:1 with platelet-poor plasma, up to 2 hours. The class given is in vitro ADME. The procedure:
(§1) Platelet Aggregation. Platelet Rich Plasma (hereinafter "PRP") was obtained from human blood anticoagulated with sodium citrate (0.01 volume of 40% trisodium citrate) or acid-citrate-dextrose (hereinafter "ACD") solution A (ACD-A; 8.5 mL of blood: 1.5 mL of ACD-A) by centrifugation at 700 g for 3.5 min. at 22° C. Platelet-poor plasma (hereinafter "PPP") was obtained by centrifuging the PRP at 2000g for 8 min. at 22° C. The pH of the citrated PRP after preparation was about 7.7 whereas the pH of the ACD-A PRP was about 7.0. The pH of the PRP was adjusted, when necessary with 1M NaOH or 1M HCl and maintained at about 7.70. Platelet aggregation was performed in a dual-channel aggregometer (Chronolog, Hayertown, Pa.) using matched stir bars.
[…] Aliquots were removed at 15, 30, 45, 60 and 120 minutes and analyzed for both the ability to aggregate platelets and peptide cleavage.

Data set [2] has as its target T1, plasma aminopeptidase M. The experiment in a line: Peptide digestion during incubation with platelet-poor plasma, HPLC. It is filed as in vitro ADME. Here is the method: (§2) Peptide Digestion Studies. For T-11 amino acids 1 to 11 of SEQ ID NO:1 and (D-Ser)T-11 SEQ ID NO:11 digestions, 0.11 volume of 20 mM peptide in 0.15M NaCl, 0.01 Tris/HCl, pH 7.4, was added to citrated platelet-poor plasma to achieve a final concentration of 2 mM. Samples were incubated for 2 hours at 37° C. and then the plasma proteins were precipitated with 9-10% trichloroacetic acid at 4° C. for at least 30 min. After centrifugation at 12000 g at 22° C. for 3 min., the supernatant was analyzed to determine peptide cleavage by reverse-phase HPLC (C8; Applied Biosystems 300 RP Aquapore; 220×4.6-mm column); elution was with 0.1% trifluoroacetic acid with a 0-60% acetonitrile gradient.
(§3) To determine the amino acid sequence of the digestion products of T-11 amino acids 1 to 11 of SEQ ID NO:1 and (D-Ser)T-11 SEQ ID NO:11 and to assess their ability to aggregate platelets, the peptide (2 mM) was incubated with citrated PPP for 2 hours at 37° C., plasma proteins were precipitated with trichloroacetic acid, and the supernatant after centrifugation was both analyzed and fractionated on the analytical reverse-phase column. Peak fractions were dried in a vacuum centrifuge (Speed-Vac, Savant, Farmingdale, N.Y.) and dissolved in either buffer (0.15M NaCl and 0.01 M Tris/HCl, pH 7.4) for aggregation studies or 0.1% trifluoroacetic acid for amino acid analysis. Quantitative amino acid analysis of the peptides was performed with commercial reagents and equipment (Pico-Tag workstation and C-18 Pico-Tag column; Waters-Millipore, Bedford, Mass.). The amino acid sequence could then be inferred from the amino acid content of each peak.
(§4) For the Ser-Phe-Leu-Leu-Arg-Asn (SFLLRN) amino acids 1 to 6 of SEQ ID NO:1 and (iso-Ser)-Phe-Leu-Leu-Arg-Asn ((iso-S))FLLRN SEQ ID NO:7 studies, 2 mM peptide in buffer (0.15 M NaCl, 0.01 M Tris/HCl, pH 7.4) was mixed with an equal volume of citrated platelet-poor plasma (1:1) and separately with an equal volume of buffer and incubated at 37° C for variable periods of time. Aliquots were removed at 15, 30, 45, 60 and 120 minutes and analyzed for both the ability to aggregate platelets and peptide cleavage.
(§5) For peptide digestion studies for SFLLRN amino acids 1 to 6 of SEQ ID NO:1 and (iso-S)FLLRN SEQ ID NO:7, samples were removed at various times and analyzed for peptide digestion by HPLC after precipitating the plasma proteins with trichloroacetic acid.

For data set [3], the target named is T2, thrombin receptor on platelets (Homo sapiens, UniProt P25116).
T2 construct: Citrated platelet-rich plasma (PRP; 307,000 platelets/μl, pH 7.0; 0.45 ml) was stirred in a cuvette at 37° C; endogenous in cells; host or cells: human platelets in citrated platelet-rich plasma
T2 sequence (P25116 22-425): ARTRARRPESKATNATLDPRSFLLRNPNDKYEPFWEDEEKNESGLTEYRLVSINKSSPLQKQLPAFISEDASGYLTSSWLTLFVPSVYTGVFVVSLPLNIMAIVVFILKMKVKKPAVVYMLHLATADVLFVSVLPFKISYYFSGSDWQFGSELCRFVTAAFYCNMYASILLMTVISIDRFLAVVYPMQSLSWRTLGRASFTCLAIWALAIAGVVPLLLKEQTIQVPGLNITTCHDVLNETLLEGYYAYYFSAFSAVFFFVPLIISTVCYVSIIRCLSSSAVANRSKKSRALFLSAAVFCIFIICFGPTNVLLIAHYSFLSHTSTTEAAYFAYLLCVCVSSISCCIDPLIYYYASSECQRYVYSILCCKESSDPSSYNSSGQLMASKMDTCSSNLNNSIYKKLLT
The experiment in a line: Dose response of peptide-induced platelet aggregation in platelet-rich plasma. The class given is cell-based. Here is the method: as §1
Dose Response of Peptide-Induced Aggregation. Citrated platelet-rich plasma (PRP; 307,000 platelets/μl, pH 7.0; 0.45 ml) was stirred in a cuvette at 37° C. and then […] of Ser-Phe-Leu-Leu-Arg-Asn-Pro-Asn-Asp-Lys-Tyr (T-11) amino acids 1 to 11 of SEQ ID NO:1, (D-Ser)-Phe-Leu-Leu-Arg-Asn-Pro-Asn-Asp-Lys-Tyr ((DS)T-11) SEQ ID NO:11, Ser-Phe-Leu-Leu-Arg-Asn amino acids 1 to 6 of SEQ ID NO:1 or (iso-Ser)-Phe-Leu-Leu-Arg-Asn SEQ ID NO:7 peptide was added to achieve the final concentration as follows: Ser-Phe-Leu-Leu-Arg-Asn-Pro-Asn-Asp-Lys-Tyr amino acids 1 to 11 of SEQ ID NO:1 was added to a maximum concentration of 2.9 μM; (D-Ser)-Phe-Leu-Leu-Arg-Asn-Pro-Asn-Asp-Lys-Tyr SEQ IS NO:11 was added to a maximum concentration of 940 μM; Ser-Phe-Leu-Leu-Arg-Asn amino acids 1 to 6 of SEQ ID NO:1 was added to a maximum concentration of 1.7 μM; (iso-Ser)-Phe-Leu-Leu-Arg-Asn SEQ ID NO:7 was added up to a maximum concentration of 4.9 μM.

Data set [4] concerns T3, plasma aminopeptidase M.
T3 construct: from tissue; host or cells: human citrated platelet-poor plasma
The experiment in a line: Peptide digestion during incubation with platelet-poor plasma, HPLC. It is filed as in vitro ADME, human. The conditions noted are these: human; for remaining at 2 h, 1 mM: 120 min; for metabolised at 2 h, 1 mM: incubated with plasma at 37° C., about two hours, read-out: peptide cleavage. The procedure: as §2, §3, §4, §5

Data set [5] concerns the target T1, plasma aminopeptidase M. The conditions noted are these: previously demonstrated, Coller et al. 1992; cited from earlier work.
The next data set concerns gel-filtered platelets. The conditions noted are these: Vu et al. 1991; cited from earlier work.
The next data set deals with aminopeptidase M (Homo sapiens, UniProt P15144). Conditions: Coller et al. 1992; not with thrombin; cited from earlier work.
aminopeptidase M, sequence (P15144 whole entry, species assumed): as the sequence (P15144 whole entry) above
The mark [6] stands for this setting: 1 mM final, 50% platelet-poor plasma, 37° C., 2 hours.
[7] abbreviates: 50% citrated platelet-poor plasma, 1 mM final, 50% platelet-poor plasma, 37° C., read-out: percentage remaining intact.

In the case of `CC(C)C[C@H](NC(=O)[C@H](Cc1ccccc1)NC(=O)[C@H](N)CO)C(=O)N[C@@H](CC(C)C)C(=O)N[C@@H](CCCNC(=N)N)C(=O)N[C@@H](CC(N)=O)C(=O)N1CCC[C@H]1C(=O)N[C@@H](CC(N)=O)C(=O)N[C@@H](CC(=O)O)C(=O)N[C@@H](CCCCN)C(=O)N[C@@H](Cc1ccc(O)cc1)C(N)=O` [(DS)T-11, (D-Ser)-Phe-Leu-Leu-Arg-Asn-Pro-Asn-Asp-Lys-Tyr] (H-[dS]FLLRNPNDKY-NH2), the “aggregating activity retained after plasma incubation” value at plasma aminopeptidase M [1] (incubated with plasma for 1 hour) was “retained more than half its aggregating activity”. The “peptide cleavage (in words)” value on plasma aminopeptidase M [2] (2 mM peptide, platelet-poor plasma, 37° C., 2 hours) is listed as “did not undergo any identifiable cleavage”.

As to `CC(C)C[C@H](NC(=O)[C@H](Cc1ccccc1)NC(=O)C(O)CN)C(=O)N[C@@H](CC(C)C)C(=O)N[C@@H](CCCNC(=N)N)C(=O)N[C@@H](CC(N)=O)C(N)=O` (stereo partly drawn) [(iso-S)FLLRN, (iso-Ser)-Phe-Leu-Leu-Arg-Asn-NH2] (ξIsoserine-FLLRN-NH2), the “platelet activating activity relative to SFLLRN” value in data set [3] (citrated PRP) is reported as 15-20%. The “platelet aggregating activity (in words)” value in data set [3] (citrated PRP) is given as “substantially active”. Further, in data set [3] (citrated PRP, 37° C., read-out: concentration to achieve half-maximal aggregation), the EC50 is around 4 µM. For the same compound, the “slope of platelet disaggregation phase” value in data set [3] (peptide at 3.7 μM, dose giving equivalent peak aggregation response) is listed as 4 U/min. The “aggregating activity after plasma incubation” value at plasma aminopeptidase M [1] (45 min) was “retained its full aggregating activity”; on plasma aminopeptidase M [1] (1 hour), “some decrease in activity”; on plasma aminopeptidase M [1] (2 hours) it was “some aggregating activity remained”. For the same compound, the “platelet aggregating activity when incubated in plasma” value on plasma aminopeptidase M [1] (37° C.) is “lost little if any activity”. The “peptide activity after incubation with buffer rather than plasma” value at plasma aminopeptidase M [1] (buffer, 37° C., 2 hours) is given as “no decrease in peptide activity”. Further, the “platelet aggregating activity after plasma incubation” value at plasma aminopeptidase M [1] (plasma at 37° C., at least two hours) is on record as “remained unchanged”. For the same compound, the “extent of digestion (in words)” value at plasma aminopeptidase M [2] (setting [6]) is recorded as “minimal digestion”. Besides, the “peptide remaining intact (in words)” value at plasma aminopeptidase M [2] (1 mM final, 50% platelet-poor plasma, 37° C., first 60 min) is “Virtually all”. Moreover, the “peptide cleavage (in words)” value on plasma aminopeptidase M [2] (incubated with plasma at 37° C., 45 minutes) is “did not undergo identifiable cleavage”. In addition, the share remaining at 2 h, 1 mM in the data set on plasma aminopeptidase M [4] (setting [7]) is around 83%. In the data set with plasma aminopeptidase M [4] (citrated platelet-poor plasma), the metabolised at 2 h, 1 mM was around 17%.

As for “SFLLRNPNDKYEPF [T-14, 14 amino acid peptide mimicking the new amino terminus of the cleaved thrombin receptor]”, in the data set with plasma aminopeptidase M [5], the “aggregating activity when incubated in plasma” value is “lost aggregating activity”. Also, the “aggregation of gel-filtered platelets” value in the data set with gel-filtered platelets is on record as “able to aggregate gel-filtered platelets directly”.

For the compound `CC(C)C[C@H](NC(=O)[C@H](CC(C)C)NC(=O)[C@H](Cc1ccccc1)NC(=O)[C@@H](N)CO)C(=O)N[C@@H](CCCN=C(N)N)C(=O)N[C@@H](CC(N)=O)C(N)=O` [SFLLRN], the “time to loss of all aggregating activity” value at plasma aminopeptidase M [1] (125 μM peptide incubated with plasma) is at most 18 min. Further, the “platelet aggregating activity when incubated in plasma” value at plasma aminopeptidase M [1] (37° C.) is given as “rapidly lost platelet aggregating activity”. Moreover, the “time to decrease of platelet aggregating activity” value at plasma aminopeptidase M [1] (incubated with plasma at 37° C.) was at most 15 min. The “platelet aggregating activity after plasma incubation” value at plasma aminopeptidase M [1] (plasma at 37° C., 60 minutes) was “nearly lost”. Also, the “time to detectable cleavage” value at plasma aminopeptidase M [2] (1 mM final, 50% platelet-poor plasma, 37° C.) is given as at most 10 min. Besides, the “extent of digestion (in words)” value at plasma aminopeptidase M [2] (setting [6]) is given as “nearly complete digestion”. Also, in the data set on plasma aminopeptidase M [4] (50% citrated platelet-poor plasma, 1 mM final, 50% platelet-poor plasma, 37° C., 15 min, read-out: peptide no longer intact), the metabolised at 0.25 h, 1 mM is 35%. Further, the fraction remaining at 0.5 h, 1 mM with plasma aminopeptidase M [4] (50% citrated platelet-poor plasma, 1 mM final, 50% platelet-poor plasma, 37° C., 30 min, read-out: percentage remaining intact) was determined as 49%. Also, the fraction remaining at 0.75 h, 1 mM in the data set with plasma aminopeptidase M [4] (50% citrated platelet-poor plasma, 1 mM final, 50% platelet-poor plasma, 37° C., 45 min, read-out: percentage remaining intact) is 23%. Moreover, the fraction remaining at 1 h, 1 mM in the data set with plasma aminopeptidase M [4] (50% citrated platelet-poor plasma, 1 mM final, 50% platelet-poor plasma, 37° C., 60 min, read-out: percentage remaining intact) is 16%. Further, the amount remaining at 2 h, 1 mM in the data set on plasma aminopeptidase M [4] (setting [7]) was determined as 4%. For the same compound, the metabolised at 2 h, 1 mM in the data set on plasma aminopeptidase M [4] (citrated platelet-poor plasma) is 96%.

With `CC(C)C[C@@H](N)[C@H](O)C(=O)N[C@H](C(=O)N[C@H](C(=O)N[C@@H](CC(=O)O)C(=O)O)C(C)C)C(C)C` [amastatin], the “effect on aggregation induced by T-11” value at aminopeptidase M is on record as “enhanced aggregation induced by T-11”.

As for “SFLLRNPNDKY-NH2 [T-11, Ser-Phe-Leu-Leu-Arg-Asn-Pro-Asn-Asp-Lys-Tyr]”, at plasma aminopeptidase M [1] (incubated with plasma), the “time to loss of all aggregating activity” value is at most 60 min. For the same compound, the “platelet aggregating ability after preincubation in plasma” value at plasma aminopeptidase M [1] (plasma at 37° C.) was “progressive loss of platelet aggregating ability”. Also, the “incubation time sufficient to produce significant inhibition of aggregating ability” value at plasma aminopeptidase M [1] (preincubation in plasma at 37° C.) is recorded as at most 10 min. Moreover, the fraction remaining at 2 h, 2 mM in the data set on plasma aminopeptidase M [4] (citrated platelet-poor plasma, 2 mM peptide, platelet-poor plasma, 37° C., 2 hours, read-out: peptide remaining intact) was determined as 34%. Further, the “aggregating activity when incubated in plasma” value at plasma aminopeptidase M [5] is listed as “lost aggregating activity”.
